Results reported in patent US4283409A, “Imidazolone derivatives” (Pfizer Inc., priority 1979, dated 1981).

What was measured:
[1] = test system: galactitol levels in the lens of galactosemic subjects; test: galactitol levels in the lens of galactosemic subjects; format: in vivo, rats; settings: summary statement, no dose given
Protocol: (§1) The activity of the compounds of the present invention, as agents for the control of chronic diabetic complications, is determined by their ability to successfully pass one or more of the following standard biologically and/or pharmacological tests, viz., (1) measuring their ability to reduce or inhibit sorbitol accumulation in the sciatic nerve of acutely streptozotocinized (i.e., diabetic) rats; (2) measuring their ability to reverse already-elevated sorbitol levels in the sciatic nerve and lens of chronic streptozotocin-induced diabetic rats; (3) measuring their ability to prevent or inhibit galactitol formation in the lens of acutely galactosemic rats, and (4) measuring their ability to delay cataract formation and reduce the severity of lens opacities in chronic galactosemic rats.

[2] = test system: sorbitol accumulation in the sciatic nerve of streptozotocinized (i.e., diabetic) rats; test: sorbitol accumulation in the sciatic nerve of streptozotocinized (diabetic) rats; format: in vivo
Protocol: as §1
The final product of Example 1, viz., 3',4'-dihydro-spiro-[imidazolidine-4,1'(2'H)naphthalene]-5-one, was tested for its ability to reduce or inhibit sorbitol accumulation in the sciatic nerve of streptozotocinized (i.e., diabetic rats) by the procedure essentially described in U.S. Pat. No. 3,821,383. In the present study, the amount of sorbitol accumulation in the sciatic nerves was measured 27 hours after the induction of diabetes. The compound was then administered orally at 25 mg./kg. at intervals of 4, 8 and 24 hours after the administration of streptozotocin. The results obtained in this manner are clearly presented in terms of the percent inhibition (%) afforded by the test compound as compared to the case where no compound was administered (i.e., the control or untreated animal where sorbitol levels normally rise from approximately […]. tissue to as high as 400 mM/g. tissue in the 27-hour test period).

Question: `O=C1NCNC12CCCc1ccccc12` (stereo not shown) [Example 1, 3',4'-dihydro-spiro-[imidazolidine-4,1'(2'H)naphthalene]-5-one] was tested. Which “lowering galactitol levels in the lens of galactosemic subjects” value [1] did it give?
Answer: remarkably effective

Question: What about the “percent inhibition of sorbitol accumulation in the sciatic nerve” value ([2]; diabetic rats, oral 25 mg./kg. at 4, 8 and 24 hours after streptozotocin, sorbitol measured 27 hours after induction of diabetes, vs untreated control) of the same compound?
Answer: 52%

Question: And the “signs of toxic side effects” value ([2]; diabetic rats, oral route, dose level of 25 mg./kg.)?
Answer: without showing any substantial signs of toxic side effects

Question: What about the “lowering sorbitol levels in the lens and sciatic nerve of diabetic subjects” value ([2]; summary statement, no dose given) of the same compound?
Answer: remarkably effective
